# Assay results: patent publication US20250255834A1, “ANXIOLYTIC COMPOSITION, FORMULATION AND METHOD OF USE” (priority 2012, published 2025)
# Test system: anxiety
# Experiment: Intranasal ketamine spray given to individual adult subjects for anxiety before a procedure or flight (case reports)
smiles,measurement,setting,value
CNC1(c2ccccc2Cl)CCCCC1=O (stereo not drawn) [ketamine],duration of relief from anxiety and calming effect,"Example I: healthy person, intranasal, about 0.2-0.3 mg/kg",15 to 30 min
same,development of anxiety during the dental procedure,"Example II: person with severe dental phobia, dental extraction under local anesthetic, intranasal unit dose before travel, additional dosage in the waiting room",without the development of anxiety
same,duration of relief from anxiety and calming effect,"Example II: person with severe dental phobia, intranasal unit dose as in Example I",15 to 30 min
